Among the data in patent publication US12473295B2, “Substituted straight chain spiro derivatives” (Janssen Pharmaceutica NV, priority 2019, dated 2025) are IC50 values, retold here.

In data set [1] the target is menin/MLL (terbium chelate-labeled menin, FITC-MBM1 peptide) (Homo sapiens (Human), UniProt O00255). Kind of data set: Menin/MLL homogenous time-resolved fluorescence (HTRF) assay.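 Also: IC50 from percent inhibition of HTRF signal, normalized between wells without competitor and wells with a saturating competitor that displaces FITC-MBM1 from His-tagged menin.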 In kind it is binding.
The next data set concerns MOLM14 cells. Kind of data set: Proliferation assay (spheroid growth, 8 days), MOLM14.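 Also: spheroid size read as confluence by live-cell imaging, compounds added at a range of concentrations with 0.3% DMSO, DMSO-treated wells = 0%, highest reference dose = low control.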 In kind it is cell-based, human. Conditions: MOLM14, 8 days, read-out: spheroid assay_OneTime MOLM14 IC50.
A further data set relates to OCI-AML3 cells. Nature of the data set: Proliferation assay (spheroid growth, 8 days), OCI-AML3. It is filed as cell-based, human. The essentials:
(§1)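 8-day spheroid growth in ultra-low attachment plates; seeding 200 cells (MOLM14, OCI-AML3) or 300 (KO-52); DMSO 0.3%. Day-8 imaging, confluence vs DMSO (0%) and top reference dose (baseline); IC50 by variable-slope fit.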

The subject of the next data set is MEIS1 mRNA. Nature of the data set: MEIS1 mRNA expression assay (Quantigene Singleplex) in MOLM14 cells.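 Also: MEIS1 transcript levels read by probe hybridization and normalized to RPL28 mRNA, with IC50 fitted to fold changes across a rising compound concentration series.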 It is filed as cell-based, human.
Another data set concerns KO-52 cells. Kind of data set: Proliferation assay (spheroid growth, 8 days), KO-52 control cell line. The note with it: read-out: spheroid assay_OneTime KO-52 IC50. In kind it is cell-based, human. The essentials: as §1
The next data set has as its target hERG potassium channel (Homo sapiens (Human), UniProt Q12809). Nature of the data set: Effect on membrane potassium current IKr in hERG transfected CHO cells, Protocol 1 (QPatch). In kind it is cell-based. How it is done:
8) Effect on the Membrane Potassium Current IKr in hERG Transfected Cell Lines
• CHO Chinese hamster ovary cell line • DMSO Dimethylsulfoxide • hERG human ether-á-go-go-related gene • IKr rapidly activating delayed-rectifier K^+ current Methods
Experiments were performed using CHO cells stably expressing the hERG potassium channel. Cells were grown at 37° C. and 5% CO2 in culture flasks in Ham's F12 Medium supplemented with 10% heat-inactivated fetal calf serum, hygromycin B (100 μg/ml) and geneticin (100 μg/ml). For use in the automated patch-clamp system QPatch (Sophion) cells were harvested to obtain cell suspension of single cells.
Solutions: The bath solution contained (in mM) 145 NaCl, 4 KCl, 10 glucose, 10 HEPES ((4-(2-hydroxyethyl)-1-piperazineethanesulfonic acid), 2 CaCl2 and 1 MgCl2 (pH 7.4 with NaOH). The pipette solution contained (in mM) 120 KCl, 10 EGTA (Ethylene glycol-bis(2-aminoethylether)-N,N,N′,N′-tetraacetic acid), 10 HEPES, 5.374 CaCl2 and 1.75 MgCl2 (pH 7.2 with KOH).
Patch-clamp experiments were performed in the voltage-clamp mode and whole-cell currents were recorded with an automated patch-clamp assay utilizing the QPatch system (Sophion). Current signals were amplified and digitized, stored and analyzed by using the QPatch assay software.
The holding potential was −80 mV. The hERG current (K^+-selective outward current) was determined as the maximal tail current at −40 mV after a 2 second depolarization to +60 mV. Pulse cycling rate was 15 s. A short pulse (90 ms) to −40 mV served as a baseline step to calculate the tail current amplitude. After establishing whole-cell configuration and a stability period, the solvent control (0.3% DMSO) was applied for 5 minutes followed by the test substance by four increasing concentrations of 3×10^−7 M, 3×10^−6 M, 10^−5 M and 3×10^−5 M. Each concentration of the test substance was applied twice. The effect of each concentration was determined after 5 min as an average current of 3 sequential voltage pulses. To determine the extent of block the residual current was compared with vehicle pre-treatment.
Concentration/response relations were calculated by non-linear least-squares fits to the individual data points. The half-maximal inhibiting concentration (IC50) was calculated by the fitting routine.

Setting [2] is: HTRF-30 min incubation IC50, 30 min incubation.
Setting [3] is: Homo sapiens, OCI-AML-3, […], OCI-AML3, 8 days.
Setting [4] is: Homo sapiens, MOLM-14, 48 h, 48 hours incubation.

The structures appear in SMILES notation. Structures can show the parent of a compound that is named as a salt. Where two headings read alike, the source gives them in different places. A value given as a limit tells only on which side of the number the result lay.

Sequence of menin/MLL (terbium chelate-labeled menin, FITC-MBM1 peptide) (O00255 other isoform, or with tags, fused parts or gaps): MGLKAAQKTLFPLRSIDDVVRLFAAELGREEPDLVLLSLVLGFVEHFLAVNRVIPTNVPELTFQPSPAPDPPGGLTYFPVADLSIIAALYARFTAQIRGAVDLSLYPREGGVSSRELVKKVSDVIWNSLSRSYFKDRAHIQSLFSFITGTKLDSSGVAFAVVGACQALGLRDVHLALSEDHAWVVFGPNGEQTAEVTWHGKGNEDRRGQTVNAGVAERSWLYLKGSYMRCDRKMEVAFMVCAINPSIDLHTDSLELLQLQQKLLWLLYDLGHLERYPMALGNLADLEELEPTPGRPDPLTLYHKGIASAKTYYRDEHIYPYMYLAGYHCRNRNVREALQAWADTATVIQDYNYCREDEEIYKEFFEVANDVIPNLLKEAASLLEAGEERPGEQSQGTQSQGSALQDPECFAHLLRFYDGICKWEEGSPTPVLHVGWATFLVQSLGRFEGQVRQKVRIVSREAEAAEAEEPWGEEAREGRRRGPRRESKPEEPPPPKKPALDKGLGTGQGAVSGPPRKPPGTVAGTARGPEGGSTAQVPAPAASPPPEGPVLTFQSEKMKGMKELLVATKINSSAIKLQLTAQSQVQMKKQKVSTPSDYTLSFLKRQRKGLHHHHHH
Sequence of hERG potassium channel (Q12809 whole entry): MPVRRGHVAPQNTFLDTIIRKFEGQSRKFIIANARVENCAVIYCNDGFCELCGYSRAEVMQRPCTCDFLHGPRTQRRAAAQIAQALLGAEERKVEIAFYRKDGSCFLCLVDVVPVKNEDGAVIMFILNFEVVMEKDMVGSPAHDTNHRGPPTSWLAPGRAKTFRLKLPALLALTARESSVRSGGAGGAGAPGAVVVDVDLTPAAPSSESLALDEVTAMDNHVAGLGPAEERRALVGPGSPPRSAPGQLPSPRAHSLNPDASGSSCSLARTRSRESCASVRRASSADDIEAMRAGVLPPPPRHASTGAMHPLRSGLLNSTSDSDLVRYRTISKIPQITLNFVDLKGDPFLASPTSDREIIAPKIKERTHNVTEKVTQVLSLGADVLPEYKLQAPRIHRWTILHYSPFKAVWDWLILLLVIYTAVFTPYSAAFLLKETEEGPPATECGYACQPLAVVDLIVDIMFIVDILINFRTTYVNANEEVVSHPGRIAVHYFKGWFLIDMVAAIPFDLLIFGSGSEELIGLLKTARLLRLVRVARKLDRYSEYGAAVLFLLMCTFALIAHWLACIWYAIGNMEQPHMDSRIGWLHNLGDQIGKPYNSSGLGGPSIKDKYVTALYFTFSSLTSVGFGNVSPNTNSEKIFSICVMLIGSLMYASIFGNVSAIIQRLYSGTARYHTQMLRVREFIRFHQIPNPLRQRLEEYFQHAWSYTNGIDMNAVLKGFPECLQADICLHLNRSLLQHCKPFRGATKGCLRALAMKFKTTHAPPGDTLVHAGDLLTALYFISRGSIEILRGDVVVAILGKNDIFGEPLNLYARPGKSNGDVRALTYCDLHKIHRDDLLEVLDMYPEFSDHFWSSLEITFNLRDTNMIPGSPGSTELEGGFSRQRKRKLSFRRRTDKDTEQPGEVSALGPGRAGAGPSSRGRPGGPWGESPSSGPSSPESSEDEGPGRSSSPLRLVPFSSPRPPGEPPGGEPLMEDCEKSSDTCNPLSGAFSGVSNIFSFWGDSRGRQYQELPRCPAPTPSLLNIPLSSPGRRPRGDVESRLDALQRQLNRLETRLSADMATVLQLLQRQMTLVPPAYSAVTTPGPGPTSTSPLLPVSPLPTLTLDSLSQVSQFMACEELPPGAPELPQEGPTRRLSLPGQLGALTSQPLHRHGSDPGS

For the compound `CCN(C(=O)c1cc(F)ccc1Oc1nncnc1N1CCC2(C1)CN([C@H](CCCNCCC#N)C(C)C)C2)C(C)C` [Compound 12, (R)-2-((5(2-(6-((2-cyanoethyl)amino)-2-methylhexan-3-yl)-2,6-diazaspiro[3.4]octan-6-yl)-1,2,4-triazin-6-yl)oxy)-N-ethyl-5-fluoro-N-isopropylbenzamide], the concentration for half-maximal inhibition (IC50) is 0.12 nM in data set [1] (setting [2]); 36 nM in the data set on MOLM14 cells (Homo sapiens, MOLM-14); 630 nM with OCI-AML3 cells (Homo sapiens, OCI-AML-3, OCI-AML3, 8 days); 39 nM in the data set on MEIS1 mRNA (Homo sapiens, MOLM-14, 48 hours incubation); 8240 nM in the data set with KO-52 cells (Homo sapiens); more than 30200 nM against hERG potassium channel.
On to `CCN(C(=O)c1cc(F)ccc1Oc1nncnc1N1CCC2(C1)CN([C@H](CCC(C)(C)NC)C(C)C)C2)C(C)C` (single isomer, unassigned) [Compound 35, (*R)-2-((5-(2-(2,6-dimethyl-6-(methylamino)heptan-3-yl)-2,6-diazaspiro[3.4]octan-6-yl)-1,2,4-triazin-6-yl)oxy)-N-ethyl-5-fluoro-N-isopropylbenzamide hydrochloride], for which the half-inhibitory concentration (IC50) in data set [1] (setting [2]) was 0.15 nM; in the data set on MOLM14 cells (Homo sapiens, MOLM-14, […]), 200 nM; in the data set on OCI-AML3 cells (setting [3]), 490 nM; with MEIS1 mRNA (setting [4]), 120 nM; in the data set on KO-52 cells (Homo sapiens, […]) it was more than 15000 nM; against hERG potassium channel it was more than 30200 nM.
With `CCN(C(=O)c1cc(F)ccc1Oc1nncnc1N1CCC2(C1)CN([C@H](CCCN(C)CC(=O)N(C)C)C(C)C)C2)C(C)C` [Compound 23], the half-inhibitory concentration (IC50) in data set [1] (setting [2]) is 0.22 nM; in the data set on MOLM14 cells (Homo sapiens, MOLM-14, […]) it was 170 nM; in the data set with OCI-AML3 cells (setting [3]), 810 nM; with MEIS1 mRNA (setting [4]), 150 nM; in the data set with KO-52 cells (Homo sapiens, […]), 13800 nM; at hERG potassium channel it was more than 30200 nM.
Turning to `CCN(C(=O)c1cc(F)ccc1Oc1nncnc1N1CCC2(C1)CN([C@H](CCC(C)(C)N)C(C)C)C2)C(C)C` (single isomer, unassigned) [Compound 30, (*R)-2-((5-(2-(6-amino-2,6-dimethylheptan-3-yl)-2,6-diazaspiro[3.4]octan-6-yl)-1,2,4-triazin-6-yl)oxy)-N-ethyl-5-fluoro-N-isopropylbenzamide], the IC50 in data set [1] (setting [2]) was 0.067 nM; in the data set with MOLM14 cells (Homo sapiens, MOLM-14, […]), 130 nM; in the data set on OCI-AML3 cells (setting [3]) it was 470 nM; in the data set on MEIS1 mRNA (setting [4]), 99 nM; in the data set with KO-52 cells (Homo sapiens, […]) it was more than 15000 nM; against hERG potassium channel it was more than 30200 nM.
For `CCN(C(=O)c1cc(F)ccc1Oc1nncnc1N1CCC2(C1)CN([C@H](CCCN(C)CC(C)OC)C(C)C)C2)C(C)C` (stereo partly drawn) [Compound 252, N-ethyl-5-fluoro-N-isopropyl-2-((5-(2-((3R)-6-((2-methoxypropyl)(methyl)amino)-2-methylhexan-3-yl)-2,6-diazaspiro[3.4]octan-6-yl)-1,2,4-triazin-6-yl)oxy)benzamide oxalate], the 50% inhibitory concentration (IC50) is 0.065 nM in data set [1] (setting [2]); 32 nM in the data set on MOLM14 cells (Homo sapiens, MOLM-14, […]); 640 nM in the data set on OCI-AML3 cells (setting [3]); 53 nM in the data set on MEIS1 mRNA (setting [4]); 7260 nM in the data set with KO-52 cells (Homo sapiens, […]); more than 30200 nM at hERG potassium channel.
Take `CCN(C(=O)c1cc(F)ccc1Oc1nncnc1N1CCC2(C1)CN([C@H](CCCN(C)C)C(C)C)C2)C(C)C` [Compound 4, (R)-2-((5-(2-(6-(dimethylamino)-2-methylhexan-3-yl)-2,6-diazaspiro[3.4]octan-6-yl)-1,2,4-triazin-6-yl)oxy)-N-ethyl-5-fluoro-N-isopropylbenzamide]: the IC50 in data set [1] (setting [2]) was 0.095 nM; in the data set with MOLM14 cells (Homo sapiens, MOLM-14, […]), 30 nM; with OCI-AML3 cells (setting [3]), 390 nM; in the data set on MEIS1 mRNA (setting [4]), 20 nM; in the data set on KO-52 cells (Homo sapiens, […]), more than 15000 nM; against hERG potassium channel, more than 30200 nM.
Turning to `CC(C)[C@@H](CCCN(C)C)N1CC2(CCN(c3ccnnc3Oc3ccc(F)cc3C(=O)N(C(C)C)C(C)C)C2)C1` (single isomer, unassigned) [Compound 75, (*R)-2-((4-(2-(6-(dimethylamino)-2-methylhexan-3-yl)-2,6-diazaspiro[3.4]octan-6-yl)pyridazin-3-yl)oxy)-5-fluoro-N,N-diisopropylbenzamide], the half-maximal inhibitory concentration (IC50) is 0.21 nM in data set [1] (read-out: HTRF-30 min incubation IC50, 30 min incubation); 53 nM in the data set with MOLM14 cells; 410 nM in the data set with OCI-AML3 cells (OCI-AML3, 8 days); 140 nM in the data set with MEIS1 mRNA (48 hours incubation); more than 15000 nM in the data set with KO-52 cells; more than 30200 nM against hERG potassium channel.
On to `CCOCCN(C)CCC[C@H](C(C)C)N1CC2(CCN(c3ncnnc3Oc3ccc(F)cc3C(=O)N(CC)C(C)C)C2)C1` [Compound 258, (R)-2-((5-(2-(6-((2-ethoxyethyl)(methyl)amino)-2-methylhexan-3-yl)-2,6-diazaspiro[3.4]octan-6-yl)-1,2,4-triazin-6-yl)oxy)-N-ethyl-5-fluoro-N-isopropylbenzamide oxalate], for which the concentration for half-maximal inhibition (IC50) in data set [1] (setting [2]) is 0.33 nM; in the data set with MOLM14 cells (Homo sapiens, MOLM-14, […]), 27 nM; with OCI-AML3 cells (setting [3]) it was 740 nM; in the data set on MEIS1 mRNA (setting [4]), 26 nM; with KO-52 cells (Homo sapiens, […]), 5440 nM; against hERG potassium channel it was more than 30200 nM.
`CCN(C(=O)c1cc(F)ccc1Oc1nncnc1N1CCC2(C1)CN([C@H](CCCNCCC(F)(F)F)C(C)C)C2)C(C)C` [Compound 14, (R)-N-ethyl-5-fluoro-N-isopropyl-2-((5-(2-(2-methyl-6-((3,3,3-trifluoropropyl)amino)hexan-3-yl)-2,6-diazaspiro[3.4]octan-6-yl)-1,2,4-triazin-6-yl)oxy)benzamide]: the IC50 turned out to be 0.05 nM in data set [1] (setting [2]); 10 nM with MOLM14 cells (Homo sapiens, MOLM-14, […]); 69 nM in the data set on OCI-AML3 cells (setting [3]); 8.5 nM in the data set on MEIS1 mRNA (setting [4]); 3100 nM in the data set on KO-52 cells (Homo sapiens, […]); 20000 nM against hERG potassium channel.
Take `CCN(C(=O)c1cc(F)ccc1Oc1nncnc1N1CCC2(C1)CN([C@H](CCCN(C)C(=O)OC(C)OC(=O)C(C)C)C(C)C)C2)C(C)C` (stereo partly drawn) [Compound 40, 1-((((R)-4-(6-(6-(2-(ethyl(isopropyl)carbamoyl)-4-fluorophenoxy)-1,2,4-triazin-5-yl)-2,6-diazaspiro[3.4]octan-2-yl)-5-methylhexyl)(methyl)carbamoyl)oxy)ethyl isobutyrate]: the half-inhibitory concentration (IC50) in data set [1] (setting [2]) is 0.4 nM; in the data set on MOLM14 cells (Homo sapiens, MOLM-14, […]), 19 nM; with OCI-AML3 cells (setting [3]), 74 nM; in the data set on MEIS1 mRNA (setting [4]), 19 nM; in the data set on KO-52 cells (Homo sapiens, […]), 9540 nM; on hERG potassium channel it was 5000 nM.
In the case of `CCN(C(=O)c1cc(F)ccc1Oc1nncnc1N1CCC2(C1)CN(C(CCCNCCS(C)(=O)=O)C(C)C)C2)C(C)C` (stereo not drawn) [Compound 18, N-ethyl-5-fluoro-N-isopropyl-2-((5-(2-(2-methyl-6-((2-(methylsulfonyl)ethyl)amino)hexan-3-yl)-2,6-diazaspiro[3.4]octan-6-yl)-1,2,4-triazin-6-yl)oxy)benzamide], the IC50 in data set [1] (setting [2]) was 0.3 nM; with MOLM14 cells (Homo sapiens, MOLM-14, […]), 120 nM; in the data set with OCI-AML3 cells (setting [3]) it was 660 nM; in the data set on MEIS1 mRNA (setting [4]) it was 150 nM; in the data set on KO-52 cells (Homo sapiens, […]), more than 15000 nM; against hERG potassium channel, more than 30200 nM.
Take `CCN(C(=O)c1cc(F)ccc1Oc1nncnc1N1CCC2(C1)CN([C@H](CCC(C)(C)N(C)C)C(C)C)C2)C(C)C` (single isomer, unassigned) [Compound 32, (*R)-2-((5(2-(6-(dimethylamino)-2,6-dimethylheptan-3-yl)-2,6-diazaspiro[3.4]octan-6-yl)-1,2,4-triazin-6-yl)oxy)-N-ethyl-5-fluoro-N-isopropylbenzamide]: the IC50 in data set [1] (setting [2]) is 0.1 nM; with MOLM14 cells (Homo sapiens, MOLM-14, […]), 58 nM; in the data set on OCI-AML3 cells (setting [3]) it was 280 nM; in the data set on MEIS1 mRNA (setting [4]) it was 88 nM; with KO-52 cells (Homo sapiens, […]), 12900 nM; at hERG potassium channel, more than 30200 nM.
